Where two headings read alike, the source gives them in different places.

We go through eleven compounds from patent publication US8853418B2, “Cyclopentylpyrazoles as N-type calcium channel blockers” (Janssen Pharmaceutica NV, priority 2012, dated 2014).

Test [1] deals with Complete Freund's Adjuvant (CFA)-Induced Hyperalgesia. Nature of the test: Complete Freund's Adjuvant (CFA)-Induced Hyperalgesia, radiant heat. It counts as in vivo, Sprague-Dawley rats. The following applies: rat CFA radiant heat model of inflammatory pain; FIG. 1.
For the next test, the target named is N-type calcium channel (Homo sapiens, UniProt Q00975). In words: Automated Electrophysiology Assay (QPatch-HT whole-cell patch clamp; low- and high-frequency stimulation). It counts as cell-based. The following applies: for inhibition at 0.1 µM / QPatch at High Frequency % Inhibition / QPatch at Low Frequency % Inhibition: 0.1 μM.
Test [2] deals with N-type calcium channel (α1B (Cav2.2), β3 and α2δ subunits) (Homo sapiens, UniProt Q00975). Nature of the test: Functional Assay: Antagonism of N-Type Calcium Channel (FDSS calcium mobilization, KCl depolarization). The format is cell-based. The following applies: for IC50: HEK cell line, 50 mM KCl depolarization, six-point concentration-response, read-out: FDSS IC50. The essentials: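 HEK cells stably co-expressing α1B (Cav2.2), β3 and α2δ were loaded with calcium dye, then given compound with fluorescence recorded for 5 min before 50 mM KCl depolarisation and 3 min more reading. IC50 came from six-point curves of maximal fluorescence, normalised to KCl maximum and buffer minimum.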
On the technique in general: A change in cytosolic calcium serves as a functional read-out for many receptors and channels.

Setting [3] is: high-frequency stimulation (15th pulse), read-out: QPatch at High Frequency % Inhibition.
[4] abbreviates: low frequency, read-out: QPatch at Low Frequency % Inhibition.
The mark [5] stands for this setting: high-frequency stimulation (15th pulse).

Sequence of N-type calcium channel (Q00975 whole entry): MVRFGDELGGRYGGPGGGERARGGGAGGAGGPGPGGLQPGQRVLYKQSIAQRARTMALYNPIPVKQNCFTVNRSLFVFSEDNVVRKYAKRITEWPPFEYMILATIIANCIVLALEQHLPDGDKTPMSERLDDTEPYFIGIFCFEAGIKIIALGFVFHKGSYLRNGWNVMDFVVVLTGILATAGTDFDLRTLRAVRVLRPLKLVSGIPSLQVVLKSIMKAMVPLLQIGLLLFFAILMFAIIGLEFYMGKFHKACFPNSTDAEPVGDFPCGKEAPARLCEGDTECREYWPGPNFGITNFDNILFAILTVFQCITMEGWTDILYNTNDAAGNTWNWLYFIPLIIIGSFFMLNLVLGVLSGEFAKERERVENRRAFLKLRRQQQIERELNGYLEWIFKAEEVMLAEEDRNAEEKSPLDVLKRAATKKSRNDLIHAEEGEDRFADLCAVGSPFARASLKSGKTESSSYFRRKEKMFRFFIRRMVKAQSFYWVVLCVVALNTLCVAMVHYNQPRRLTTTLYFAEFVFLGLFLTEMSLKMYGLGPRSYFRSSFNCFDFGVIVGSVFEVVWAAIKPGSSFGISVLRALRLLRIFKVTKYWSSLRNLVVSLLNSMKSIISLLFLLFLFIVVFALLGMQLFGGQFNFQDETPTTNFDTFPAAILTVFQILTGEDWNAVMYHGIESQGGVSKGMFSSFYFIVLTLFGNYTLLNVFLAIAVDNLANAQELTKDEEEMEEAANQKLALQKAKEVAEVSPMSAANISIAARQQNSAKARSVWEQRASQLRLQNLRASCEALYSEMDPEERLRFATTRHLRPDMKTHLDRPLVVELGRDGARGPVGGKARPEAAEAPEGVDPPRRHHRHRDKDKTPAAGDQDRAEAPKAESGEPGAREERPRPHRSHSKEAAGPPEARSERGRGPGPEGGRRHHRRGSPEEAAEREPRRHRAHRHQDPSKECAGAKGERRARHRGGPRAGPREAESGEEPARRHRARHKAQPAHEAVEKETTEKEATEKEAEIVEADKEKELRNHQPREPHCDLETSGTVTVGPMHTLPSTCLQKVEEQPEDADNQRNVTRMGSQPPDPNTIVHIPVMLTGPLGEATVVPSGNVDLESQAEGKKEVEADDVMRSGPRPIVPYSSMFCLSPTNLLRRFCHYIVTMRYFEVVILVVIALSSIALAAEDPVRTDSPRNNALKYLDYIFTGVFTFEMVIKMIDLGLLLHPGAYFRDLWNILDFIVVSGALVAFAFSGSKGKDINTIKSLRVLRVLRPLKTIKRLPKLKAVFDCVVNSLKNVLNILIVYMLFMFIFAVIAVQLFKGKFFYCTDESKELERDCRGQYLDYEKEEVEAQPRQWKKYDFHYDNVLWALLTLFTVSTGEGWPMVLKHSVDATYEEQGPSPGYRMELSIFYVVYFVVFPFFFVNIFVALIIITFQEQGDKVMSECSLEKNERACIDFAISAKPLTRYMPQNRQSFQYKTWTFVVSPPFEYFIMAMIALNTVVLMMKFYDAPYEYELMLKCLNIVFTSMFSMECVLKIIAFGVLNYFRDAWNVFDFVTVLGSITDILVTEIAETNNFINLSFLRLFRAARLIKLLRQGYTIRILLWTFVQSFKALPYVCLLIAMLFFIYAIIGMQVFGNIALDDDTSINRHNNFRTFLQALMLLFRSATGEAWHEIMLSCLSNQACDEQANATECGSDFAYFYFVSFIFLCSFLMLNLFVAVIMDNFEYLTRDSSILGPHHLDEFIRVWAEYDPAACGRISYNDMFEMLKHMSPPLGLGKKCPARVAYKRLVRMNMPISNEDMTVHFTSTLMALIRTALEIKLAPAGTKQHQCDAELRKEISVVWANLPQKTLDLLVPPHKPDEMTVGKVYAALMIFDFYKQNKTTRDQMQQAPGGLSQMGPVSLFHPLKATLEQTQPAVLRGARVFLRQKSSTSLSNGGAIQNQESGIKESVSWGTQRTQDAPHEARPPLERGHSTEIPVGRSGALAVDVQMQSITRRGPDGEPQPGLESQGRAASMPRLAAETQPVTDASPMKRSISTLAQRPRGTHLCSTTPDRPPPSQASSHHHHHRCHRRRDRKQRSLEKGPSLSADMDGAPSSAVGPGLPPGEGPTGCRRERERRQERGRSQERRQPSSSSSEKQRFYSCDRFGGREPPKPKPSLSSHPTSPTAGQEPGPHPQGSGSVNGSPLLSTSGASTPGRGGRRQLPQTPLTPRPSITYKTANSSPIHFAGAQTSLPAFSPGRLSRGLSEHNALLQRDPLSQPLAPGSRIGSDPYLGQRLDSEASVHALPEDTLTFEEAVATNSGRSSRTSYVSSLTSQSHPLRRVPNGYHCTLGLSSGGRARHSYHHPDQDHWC
Sequence of N-type calcium channel (P54284 whole entry partner): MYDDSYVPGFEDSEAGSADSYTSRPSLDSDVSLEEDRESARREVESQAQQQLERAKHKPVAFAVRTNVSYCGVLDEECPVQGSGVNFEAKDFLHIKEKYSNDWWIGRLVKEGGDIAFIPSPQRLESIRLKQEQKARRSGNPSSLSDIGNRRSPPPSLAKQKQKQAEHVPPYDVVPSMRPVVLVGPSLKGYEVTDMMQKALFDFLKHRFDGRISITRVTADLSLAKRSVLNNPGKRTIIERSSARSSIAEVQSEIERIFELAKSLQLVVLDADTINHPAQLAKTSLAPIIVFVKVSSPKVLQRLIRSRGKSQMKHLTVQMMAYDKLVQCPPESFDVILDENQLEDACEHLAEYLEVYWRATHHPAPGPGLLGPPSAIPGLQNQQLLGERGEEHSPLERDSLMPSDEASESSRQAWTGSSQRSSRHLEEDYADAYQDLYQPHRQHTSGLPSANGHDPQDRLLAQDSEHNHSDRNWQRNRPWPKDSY
Sequence of N-type calcium channel (P54289 25-946 partner limits assumed): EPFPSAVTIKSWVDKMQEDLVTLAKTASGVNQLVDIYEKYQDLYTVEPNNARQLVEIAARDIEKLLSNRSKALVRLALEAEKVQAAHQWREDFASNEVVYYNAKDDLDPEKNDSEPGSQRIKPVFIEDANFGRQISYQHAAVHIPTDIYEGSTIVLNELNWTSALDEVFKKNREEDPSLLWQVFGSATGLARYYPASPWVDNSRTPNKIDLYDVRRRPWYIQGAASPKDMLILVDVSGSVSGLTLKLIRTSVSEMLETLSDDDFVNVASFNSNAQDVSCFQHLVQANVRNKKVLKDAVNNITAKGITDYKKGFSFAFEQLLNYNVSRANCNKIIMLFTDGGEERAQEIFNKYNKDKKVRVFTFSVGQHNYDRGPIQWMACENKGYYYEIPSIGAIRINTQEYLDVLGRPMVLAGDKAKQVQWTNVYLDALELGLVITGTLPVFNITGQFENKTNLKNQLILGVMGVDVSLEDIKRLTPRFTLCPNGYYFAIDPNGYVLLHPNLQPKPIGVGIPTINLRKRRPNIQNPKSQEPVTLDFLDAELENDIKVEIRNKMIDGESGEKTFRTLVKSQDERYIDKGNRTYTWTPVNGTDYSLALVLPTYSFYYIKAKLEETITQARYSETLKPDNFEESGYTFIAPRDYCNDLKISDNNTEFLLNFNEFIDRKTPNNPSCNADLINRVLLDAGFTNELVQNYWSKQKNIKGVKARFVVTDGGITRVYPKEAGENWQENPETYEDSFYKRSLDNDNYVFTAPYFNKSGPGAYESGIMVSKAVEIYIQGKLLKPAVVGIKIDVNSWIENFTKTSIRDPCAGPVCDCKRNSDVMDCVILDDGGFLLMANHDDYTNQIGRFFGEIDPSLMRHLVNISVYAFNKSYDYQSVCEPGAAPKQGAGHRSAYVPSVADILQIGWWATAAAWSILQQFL
Sequence of N-type calcium channel (P54289 947-1103 partner limits assumed): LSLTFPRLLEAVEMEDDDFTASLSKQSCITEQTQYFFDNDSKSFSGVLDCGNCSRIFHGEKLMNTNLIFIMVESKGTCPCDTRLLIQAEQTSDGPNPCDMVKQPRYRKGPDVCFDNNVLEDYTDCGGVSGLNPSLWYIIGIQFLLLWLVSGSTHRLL
Sequence of N-type calcium channel (α1B (Cav2.2), β3 and α2δ subunits) (Q00975 whole entry): as the sequence (Q00975 whole entry) above
Sequence of N-type calcium channel (α1B (Cav2.2), β3 and α2δ subunits) (P54284 whole entry partner): as the sequence (P54284 whole entry partner) above
Sequence of N-type calcium channel (α1B (Cav2.2), β3 and α2δ subunits) (P54289 25-946 partner limits assumed): as the sequence (P54289 25-946 partner limits assumed) above
Sequence of N-type calcium channel (α1B (Cav2.2), β3 and α2δ subunits) (P54289 947-1103 partner limits assumed): as the sequence (P54289 947-1103 partner limits assumed) above

One may read the inhibition as the relative decrease from the control value, in per cent. As usually defined, the IC50 is the concentration needed to halve the response being measured. For the compound `COc1ccccc1-n1nc2c(c1-c1ccc(Cl)cc1)CC1(C2)OCC(C)(C)CO1` [Compound 71, 3-(4-chlorophenyl)-2-(2-methoxyphenyl)-5′,5′-dimethyl-2,6-dihydro-4H-spiro[cyclopenta[c]pyrazole-5,2′-[1,3]dioxane]], the antihyperalgesic effect result in test [1] is reported as “antihyperalgesic effect”. Besides, the inhibition at 0.1 µM on N-type calcium channel (setting [3]) worked out at 37%; on N-type calcium channel (setting [4]), 21%. Further, the inhibition at 0.33 µM in test [2] (0.33 μM) is 89%. The IC50 in test [2] was found to be 13 nM.

For the compound `COc1ccccc1-n1nc2c(c1-c1ccc(C#N)cc1)CC1(C2)OC(C)(C)C(C)(C)O1` [Compound 111, 4-[2-(2-methoxyphenyl)-4′,4′,5′,5′-tetramethyl-2,6-dihydro-4H-spiro[cyclopenta[c]pyrazole-5,2′-[1,3]dioxolan]-3-yl]benzonitrile], the inhibition at 0.1 µM is 21% at N-type calcium channel (setting [3]) and -5% on N-type calcium channel (setting [4]). In addition, the inhibition at 0.33 µM in test [2] (0.33 μM) is 90%. Further, in test [2], the IC50 came to 3.7 nM.

On to `COc1ccccc1-n1nc2c(c1-c1ccc(Cl)cc1)CC1(C2)O[C@H]2CCCC[C@H]2O1` (stereo partly drawn) [Compound 112, (3aR,7aS)-3′-(4-chlorophenyl)-2′-(2-methoxyphenyl)-2′,3a,4,5,6,6′,7,7a-octahydro-4′H-spiro[1,3-benzodioxole-2,5′-cyclopenta[c]pyrazole]], for which the inhibition at 0.1 µM was 26% on N-type calcium channel (setting [3]) and 7% at N-type calcium channel (setting [4]). Also, the inhibition at 0.33 µM in test [2] was determined as 90%.

For `COc1ccccc1-n1nc2c(c1-c1ccc(Cl)cc1)CC1(C2)O[C@H]2CCC[C@@H]2O1` [Compound 113, (3aS,6aS)-3′-(4-chlorophenyl)-2′-(2-methoxyphenyl)-2′,4,5,6,6′,6a-hexahydro-3aH,4′H-spiro[cyclopenta[d][1,3]dioxole-2,5′-cyclopenta[c]pyrazole]], the results for the inhibition at 0.1 µM at N-type calcium channel (setting [3]) and at N-type calcium channel (setting [4]) were 3% and -4%, respectively. Moreover, the inhibition at 0.33 µM in test [2] (0.33 μM) stood at 82%. Besides, the IC50 in test [2] turned out to be 42 nM.

Consider `COc1ccccc1-n1nc2c(c1-c1ccc(Cl)cc1)CC1(C2)O[C@H]2CCC[C@H]2O1` (stereo partly drawn) [Compound 114, (3aR,6aS)-3′-(4-chlorophenyl)-2′-(2-methoxyphenyl)-2′,4,5,6,6′,6a-hexahydro-3aH,4′H-spiro[cyclopenta[d][1,3]dioxole-2,5′-cyclopenta[c]pyrazole]], for which the “QPatch at High Frequency % Inhibition” value on N-type calcium channel (setting [5]) is recorded as 65%. Besides, on N-type calcium channel (low frequency), the “QPatch at Low Frequency % Inhibition” value was determined as 44%. Besides, in test [2] (0.33 μM), the inhibition at 0.33 µM was 90%. Moreover, in test [2], the IC50 stood at 5 nM.

Consider `COc1ccccc1-n1nc2c(c1-c1ccc(Cl)cc1)CC1(C2)O[C@H]2CCC[C@H]2O1` (stereo partly drawn) [Compound 115, (3aR,6aS)-3′-(4-chlorophenyl)-2′-(2-methoxyphenyl)-2′,4,5,6,6′,6a-hexahydro-3aH,4′H-spiro[cyclopenta[d][1,3]dioxole-2,5′-cyclopenta[c]pyrazole]], for which the “QPatch at High Frequency % Inhibition” value at N-type calcium channel (setting [5]) is 37%. For the same compound, on N-type calcium channel (low frequency), the “QPatch at Low Frequency % Inhibition” value is 8%. In test [2] (0.33 μM), the “% Inhibition (%) at 0.33 μM” value was found to be 85%. Moreover, the IC50 in test [2] came to 11 nM.

Consider `COc1ccccc1-n1nc2c(c1-c1ccc(Cl)cc1)CC(N1CCC(F)(F)C1)C2` (centres unmarked) [Compound 123, 3-(4-chlorophenyl)-5-(3,3-difluoropyrrolidin-1-yl)-2-(2-methoxyphenyl)-2,4,5,6-tetrahydrocyclopenta[c]pyrazole], for which the inhibition at 0.1 µM on N-type calcium channel (setting [3]) was 26%; at N-type calcium channel (setting [4]), 2%. In test [2] (0.33 μM), the inhibition at 0.33 µM was found to be 91%. For the same compound, the IC50 in test [2] turned out to be 19 nM.

Regarding `COc1ccccc1-n1nc2c(c1-c1ccc(C#N)cc1)C[C@H](n1cc(C3CCCC3)nn1)C2` [Compound 124, 4-[(5S)-5-(4-cyclopentyl-1H-1,2,3-triazol-1-yl)-2-(2-methoxyphenyl)-2,4,5,6-tetrahydrocyclopenta[c]pyrazol-3-yl]benzonitrile], the inhibition at 1 µM on N-type calcium channel (setting [3]) amounted to 73%; at N-type calcium channel (setting [4]), 68%. The inhibition at 0.33 µM in test [2] (0.33 μM) turned out to be 88%. Further, in test [2], the IC50 worked out at 43 nM.

`COc1ccccc1-n1nc2c(c1-c1ccc(C#N)cc1)C[C@H](n1cc(CC(C)C)nn1)C2` [Compound 127, 4-{(5S)-2-(2-methoxyphenyl)-5-[4-(2-methylpropyl)-1H-1,2,3-triazol-1-yl]-2,4,5,6-tetrahydrocyclopenta[c]pyrazol-3-yl}benzonitrile]: the inhibition at 0.1 µM at N-type calcium channel (setting [3]) worked out at 26%; on N-type calcium channel (setting [4]) it was 13%. Moreover, the inhibition at 0.33 µM in test [2] (0.33 μM) was 97%. Moreover, in test [2], the IC50 came to 17 nM.

Consider `COc1ccccc1-n1nc2c(c1-c1ccc(C#N)cc1)C[C@H](n1cc(C(C)(C)C)nn1)C2` [Compound 130, 4-[(5S)-5-(4-tert-butyl-1H-1,2,3-triazol-1-yl)-2-(2-methoxyphenyl)-2,4,5,6-tetrahydrocyclopenta[c]pyrazol-3-yl]benzonitrile], for which the inhibition at 1 µM turned out to be 57% on N-type calcium channel (setting [3]) and 39% on N-type calcium channel (setting [4]). Further, the inhibition at 0.33 µM in test [2] (0.33 μM) is 92%. Further, in test [2], the IC50 was 50 nM.

`CCc1ncn([C@@H]2Cc3nn(-c4ccccc4OC)c(-c4ccc(C#N)cc4)c3C2)c1CC` [Compound 139, 4-[(5S)-5-(4,5-diethyl-1H-imidazol-1-yl)-2-(2-methoxyphenyl)-2,4,5,6-tetrahydrocyclopenta[c]pyrazol-3-yl]benzonitrile]: the inhibition at 1 µM was 66% on N-type calcium channel (setting [3]) and 72% at N-type calcium channel (setting [4]). The inhibition at 0.33 µM in test [2] (0.33 μM) worked out at 87%. The IC50 in test [2] is 37 nM.
